Reference: US20120100361A1, “ANTISEPTIC COMPOSITION FOR ENGINEERING WOOD PRODUCTION, AND ENGINEERING WOOD” (SDS BIOTECH K.K., priority 2009, published 2012)

Experiments:
fungus cellar soil-bed [1] = experiment: Fungus cellar soil-bed test of preservative plywood (JIS K1571:2004); details: for Grade average of the decay damage of five test samples: plywood, six months, 25° C., grade 0 sound condition to 5 out of shape due to the decay
Procedure: (§1) 1000 g of urea melamine resin (PWP-60, manufactured by Oshika Corporation) was added to 180 g of wheat flour and fully kneaded to thereby obtain a kneaded product. 8 g of ammonium chloride was added as a hardening agent to the kneaded product, and a solution of each of the compounds of Example 1 and Comparative Example 1, 2 and 5 to 25 was further added thereto so that the final concentrations of the compound in the wood become 150, 100, 50 and 25 g/m^3 and kneaded. 18 g of the above kneaded product was applied onto each of the bonding plane of the three red lauan veneer sheets having an area of 30 x 30 cm and thickness of 0.85 mm/2.4 mm/0.85 mm. After bonding the three sheets to each other, the sheets were subjected to cold pressing at room temperature for 20 minutes and the thermal pressure of 120° C. (10 kgf/cm^2) was applied to the sheets for two minutes to obtain the target plywood. Each of the prepared plywood was processed into the size of 20×20×4.1 mm to serve as a test sample.
The preservative plywood was prepared in the same manner in Preparation Example 2. Each of the prepared plywood was processed into the size of 8.9 x 8.9×100 mm to serve as a test sample.
(§2) The samples of the plywood and LVL prepared in Preparation Examples 4 and 5 were evaluated by the fungus cellar soil-bed test according to JIS K1571:2004. The weather resistance operation and the test method for the antiseptic effect were performed according to the above test method. The test was carried out for six months setting the test temperature to 25° C. (because the grade average of the decay damage of the non-treated test samples exceeded 2.5 in six months). […] The effect in the glue line treatment was actually investigated with respect to a number of existing antiseptics, and it was confirmed that only epoxyconazole is suitable for the glue line treatment at a low concentration.

Fomitopsis palustris [2] = experiment: Test for antiseptic effects of preservative LVL (JIS K1571:2004); assay type: cell-based; details: phenol resin
Procedure: (§3) 1000 g of the phenol resin-based glue Deernol D-117 (manufactured by Oshika Corporation), 70 g of wheat flour and 100 g of calcium carbonate were mixed and well kneaded. A solution of each of the compounds of Example 1 and Comparative Example 1, 2 and 5 to 25 was added to the kneaded product so that the final concentrations of the compound in the wood become 150, 100, 50 and 25 g/m^3 and further kneaded. 18 g of the above kneaded product was applied onto each of the surface of glue line of the three Radiata pine veneer sheets having an area of 30 x 30 cm and thickness of 3 mm. After bonding the three sheets to each other, the sheets were subjected to cold pressing at room temperature for 20 minutes and the thermal pressure of 140° C. (10 kgf/cm^2) was applied to the sheets for two minutes to obtain the target LVL. Each of the prepared LVL was processed into the size of 20×20×9 mm to serve as a test sample.
(§4) The samples of the plywood and LVL prepared in Preparation Examples 2 and 3 were evaluated by the test for antiseptic effects for the drug pressure treatment according to JIS K1571:2004. The weather resistance operation and the test method for the antiseptic effect were performed according to the above test method.

Trametes versicolor [3] = experiment: as above; assay type: cell-based; details: phenol resin
Procedure: as §3, §4

Fomitopsis palustris [4] = experiment: Test for antiseptic effects of preservative plywood (JIS K1571:2004); assay type: cell-based; details: for average rate of decrease in weight: plywood, urea melamine resin, Fomitopsis palustris
Procedure: as §1, §4

Trametes versicolor [5] = experiment: as above; assay type: cell-based; details: for average rate of decrease in weight: plywood, urea melamine resin, Trametes versicolor; for amount showing the antiseptic effect on Trametes versicolor: glue line method, summary of Tables 2 and 3
Procedure: as §1, §4

[6] = Test for miscibility with a phenol resin glue; assay type: physicochemical; design: key to Phenol resin status after 60 minutes: ∘: No change; x: Obvious increase in the viscosity was seen and it seems impossible to apply the composition onto the veneer sheet; details: for Phenol resin status after 60 minutes: 10% (w/w) solution added to phenol resin glue Deernol D-117 kneaded product, viscosity change visually observed for 60 minutes; for compatibility with phenol resin glue (in words): summary of Table 1
Procedure: The following compounds, which are known to have wood preservative activity, are dissolved in methyl ethylene triglycol to reach a concentration of 10% (w/w) to thereby obtain a solution of each of the compounds.
1000 g of phenol resin-based glue Deernol D-117 (manufactured by Oshika Corporation), 70 g of wheat flour and 100 g of calcium carbonate were mixed and well kneaded. Each of the solutions of Example 1 and Comparative Example 1 to 25 was added to 17 g of the kneaded product and mixed well together. The viscosity change of the glue was visually observed for 60 minutes. […] Although a number of documents listed as the prior art documents and the like teach that quaternary ammonium compounds can be applied to the glue line treatment, it is clear that those compounds have a problem for practical use (Comparative Examples 3 and 4). On the other hand, it was confirmed that the other compounds including that of Example has no problem from the viewpoint of compatibility.

fungus cellar soil-bed [7] = experiment: Fungus cellar soil-bed test of preservative LVL (JIS K1571:2004); details: 25° C., grade 0 sound condition to 5 out of shape due to the decay
Procedure: as §3
The preservative LVL was prepared in the same manner in Preparation Example 3. Each of the prepared LVL was processed into the size of 9×9×100 mm to serve as a test sample.
as §2

## Fc1ccc([C@]2(Cn3cncn3)O[C@H]2c2ccccc2Cl)cc1 (racemic) [Example 1, Epoxyconazole]
Fungus cellar soil-bed [1]; fungus cellar soil-bed test, plywood and LVL, text summary of Tables 4 and 5
  amount showing sufficient antiseptic effect: 25 to 50 g/m^3
Fungus cellar soil-bed [1]; treated amount 25 g/m^3
  Grade average of the decay damage of five test samples: 0.2
Fungus cellar soil-bed [1]; treated amount 50 g/m^3
  Grade average of the decay damage of five test samples: 0
Fungus cellar soil-bed [1]; treated amount 100 g/m^3
  Grade average of the decay damage of five test samples: 0
Fungus cellar soil-bed [1]; treated amount 150 g/m^3
  Grade average of the decay damage of five test samples: 0
Fomitopsis palustris [2]; treated amount 25 g/m^3
  average rate of decrease in weight: ◯ (The average rate of decrease in weight was less than 3%.)
Fomitopsis palustris [2]; treated amount 50 g/m^3
  average rate of decrease in weight: ◯ (The average rate of decrease in weight was less than 3%.)
Fomitopsis palustris [2]; treated amount 100 g/m^3
  average rate of decrease in weight: ◯ (The average rate of decrease in weight was less than 3%.)
Fomitopsis palustris [2]; treated amount 150 g/m^3
  average rate of decrease in weight: ◯ (The average rate of decrease in weight was less than 3%.)
Trametes versicolor [3]; treated amount 25 g/m^3
  average rate of decrease in weight: ◯ (The average rate of decrease in weight was less than 3%.)
Trametes versicolor [3]; treated amount 50 g/m^3
  average rate of decrease in weight: ◯ (The average rate of decrease in weight was less than 3%.)
Trametes versicolor [3]; treated amount 100 g/m^3
  average rate of decrease in weight: ◯ (The average rate of decrease in weight was less than 3%.)
Trametes versicolor [3]; treated amount 150 g/m^3
  average rate of decrease in weight: ◯ (The average rate of decrease in weight was less than 3%.)
Fomitopsis palustris [4]; glue line method, plywood and LVL, both fungi, summary of Tables 2 and 3
  amount showing sufficient antiseptic effect: 25 to 50 g/m^3
Fomitopsis palustris [4]; treated amount 25 g/m^3
  average rate of decrease in weight: ◯ (The average rate of decrease in weight was less than 3%.)
Fomitopsis palustris [4]; treated amount 50 g/m^3
  average rate of decrease in weight: ◯ (The average rate of decrease in weight was less than 3%.)
Fomitopsis palustris [4]; treated amount 100 g/m^3
  average rate of decrease in weight: ◯ (The average rate of decrease in weight was less than 3%.)
Fomitopsis palustris [4]; treated amount 150 g/m^3
  average rate of decrease in weight: ◯ (The average rate of decrease in weight was less than 3%.)
Trametes versicolor [5]; treated amount 25 g/m^3
  average rate of decrease in weight: ◯ (The average rate of decrease in weight was less than 3%.)
Trametes versicolor [5]; treated amount 50 g/m^3
  average rate of decrease in weight: ◯ (The average rate of decrease in weight was less than 3%.)
Trametes versicolor [5]; treated amount 100 g/m^3
  average rate of decrease in weight: ◯ (The average rate of decrease in weight was less than 3%.)
Trametes versicolor [5]; treated amount 150 g/m^3
  average rate of decrease in weight: ◯ (The average rate of decrease in weight was less than 3%.)
[6]
  Phenol resin status after 60 minutes: ∘
Fungus cellar soil-bed [7]; treated amount 25 g/m^3, six months
  Grade average of the decay damage of five test samples: 0.4
Fungus cellar soil-bed [7]; treated amount 50 g/m^3, six months
  Grade average of the decay damage of five test samples: 0
Fungus cellar soil-bed [7]; treated amount 100 g/m^3, six months
  Grade average of the decay damage of five test samples: 0
Fungus cellar soil-bed [7]; treated amount 150 g/m^3, six months
  Grade average of the decay damage of five test samples: 0

## CCCCC(O)(Cn1cncn1)c1ccc(Cl)cc1Cl (centres unmarked) [Comparative Example 1, hexaconazole]
Trametes versicolor [5]
  amount showing the antiseptic effect on Trametes versicolor: ≥ 50 g/m^3
[6]
  Phenol resin status after 60 minutes: ∘

## C[Si](C)(C)CC(O)(Cn1cncn1)c1ccc(F)cc1F (centres unmarked) [Comparative Example 2, 2-(2,4-difluorophenyl)-1-(1H-1,2,4-triazole-1-yl)-3-(trimethylsilyl)propane-2-ol]
Trametes versicolor [5]
  amount showing the antiseptic effect on Trametes versicolor: ≥ 100 g/m^3
[6]
  Phenol resin status after 60 minutes: ∘

## CCCCCCCCCC[N+](C)(C)CCCCCCCCCC.[Cl-] [Comparative Example 4, didecyldimethylammonium chloride]
[6]
  Phenol resin status after 60 minutes: x
  compatibility with phenol resin glue (in words): harden the glue

## CC(C1CC1)C(O)(Cn1cncn1)c1ccc(Cl)cc1 (centres unmarked) [Comparative Example 5, cyproconazole]
[6]
  Phenol resin status after 60 minutes: ∘

## CC(C)(C)C(O)(CCc1ccc(Cl)cc1)Cn1cncn1 (centres unmarked) [Comparative Example 6, tebuconazole]
[6]
  Phenol resin status after 60 minutes: ∘

## Clc1ccc(C2(Cn3cncn3)OCCO2)c(Cl)c1 [Comparative Example 7, azaconazole]
[6]
  Phenol resin status after 60 minutes: ∘

## C[Si](C)(C)CC(O)(Cn1cncn1)c1ccc(F)cc1 (centres unmarked) [Comparative Example 8, simeconazole]
[6]
  Phenol resin status after 60 minutes: ∘

## N#CC(CCc1ccc(Cl)cc1)(Cn1cncn1)c1ccccc1 (centres unmarked) [Comparative Example 9, fenbuconazole]
[6]
  Phenol resin status after 60 minutes: ∘

## C[Si](Cn1cncn1)(c1ccc(F)cc1)c1ccc(F)cc1 [Comparative Example 10, flusilazole]
[6]
  Phenol resin status after 60 minutes: ∘

## OC(Cn1cncn1)(c1ccc(F)cc1)c1ccccc1F (centres unmarked) [Comparative Example 11, flutriafol]
[6]
  Phenol resin status after 60 minutes: ∘

## Clc1ccc(CSC(Cn2cncn2)=Nc2ccc(Cl)cc2Cl)cc1 [Comparative Example 12, imibenconazole]
[6]
  Phenol resin status after 60 minutes: ∘

## CC(C)C1CCC(Cc2ccc(Cl)cc2)C1(O)Cn1cncn1 (centres unmarked) [Comparative Example 13, ipconazole]
[6]
  Phenol resin status after 60 minutes: ∘

## CC1(C)CCC(Cc2ccc(Cl)cc2)C1(O)Cn1cncn1 (centres unmarked) [Comparative Example 14, metconazole]
[6]
  Phenol resin status after 60 minutes: ∘

## CCCCC(C#N)(Cn1cncn1)c1ccc(Cl)cc1 (centres unmarked) [Comparative Example 15, myclobutanil]
[6]
  Phenol resin status after 60 minutes: ∘

## CCCC(Cn1cncn1)c1ccc(Cl)cc1Cl (centres unmarked) [Comparative Example 16, penconazole]
[6]
  Phenol resin status after 60 minutes: ∘

## CCCC1COC(Cn2cncn2)(c2ccc(Cl)cc2Cl)O1 (centres unmarked) [Comparative Example 17, propiconazole]
[6]
  Phenol resin status after 60 minutes: ∘

## FC(F)C(F)(F)OCC(Cn1cncn1)c1ccc(Cl)cc1Cl (centres unmarked) [Comparative Example 18, tetraconazole]
[6]
  Phenol resin status after 60 minutes: ∘

## CC(C)(C)C(=O)C(Oc1ccc(Cl)cc1)n1cncn1 (centres unmarked) [Comparative Example 19, triadimefon]
[6]
  Phenol resin status after 60 minutes: ∘

## CC1(C)CCC(=Cc2ccc(Cl)cc2)C1(O)Cn1cncn1 (centres unmarked) [Comparative Example 20, triticonazole]
[6]
  Phenol resin status after 60 minutes: ∘

## COC(=O)N(OC)c1ccccc1COc1ccn(-c2ccc(Cl)cc2)n1 [Comparative Example 22, pyraclostrobin]
[6]
  Phenol resin status after 60 minutes: ∘

## N#Cc1c(Cl)c(Cl)c(Cl)c(C#N)c1Cl [Comparative Example 25, chlorothalonil]
[6]
  Phenol resin status after 60 minutes: ∘

## benzalkonium chloride [Comparative Example 3]
[6]
  Phenol resin status after 60 minutes: x
  compatibility with phenol resin glue (in words): harden the glue
